According to patent US8546440B2, “Substituted bicyclic imidazole derivatives as gamma secretase modulators” (Janssen Pharmaceuticals, Inc., priority 2008, dated 2013):
pIC50: −log10 of the molar value.

Experiments:
Aβ42 = test: Screening for γ-secretase-modulating activity, Method 1: Aβ42 sandwich ELISA in supernatant of SKNBE2 cells carrying APP 695 wild type (Tables 12a, 12b); type: cell-based
Procedure: (§1) Screening was carried out using SKNBE2 cells carrying the APP 695—wild type, grown in Dulbecco's Modified Eagle's Medium/Nutrient mixture F-12 (DMEM/NUT-mix F-12) (HAM) provided by Gibco (cat no. 31330-38) containing 5% Serum/Fe supplemented with 1% non-essential amino acids. Cells were grown to near confluency.
(§2) The screening was performed using the assay as described in Citron et al (1997) Nature Medicine 3: 67. Briefly, cells were plated in a 96-well plate at about 10^5 cells/ml one day prior to addition of compounds. Compounds were added to the cells in Ultraculture (Lonza, BE12-725F) supplemented with 1% glutamine (Invitrogen, 25030-024) for 18 hours. The media were assayed by two sandwich ELISAs, for Aβ42 and Aβtotal. Toxicity of the compounds was assayed by WST-1 cell proliferation reagent (Roche, 1 644 807) according to the manufacturer's protocol.
To quantify the amount of Aβ42 in the cell supernatant, commercially available Enzyme-Linked-Immunosorbent-Assay (ELISA) kits were used (Innotest® β-Amyloid(1-42), Innogenetics N.V., Ghent, Belgium). The Aβ42 ELISA was performed essentially according to the manufacturer's protocol. Briefly, the standards (dilutions of synthetic Aβ1-42) were prepared in polypropylene Eppendorf with final concentrations of 8000 down to 3.9 pg/ml (1/2 dilution step). Samples, standards and blanks (100 μl) were added to the anti-Aβ42-coated plate supplied with the kit (the capture antibody selectively recognizes the C-terminal end of the antigen). The plate was allowed to incubate 3 h at 25° C. in order to allow formation of the antibody-amyloid complex. Following this incubation and subsequent wash steps a selective anti-Aβ-antibody conjugate (biotinylated 3D6) was added and incubated for a minimum of 1 hour in order to allow formation of the antibody-Amyloid-antibody-complex. After incubation and appropriate wash steps, a Streptavidine-Peroxidase-Conjugate was added, followed 30 minutes later by an addition of 3,3′,5,5′-tetramethylbenzidine (TMB)/peroxide mixture, resulting in the conversion of the substrate into a coloured product. This reaction was stopped by the addition of sulfuric acid (0.9 N) and the colour intensity was measured by means of photometry with an ELISA-reader with a 450 nm filter.
(§3) To obtain the values reported in Table 12a, the sigmoidal dose response curves were analysed by computerised curve-fitting, with percent of inhibition plotted against compound concentration. A 4-parameter equation (model 205) in XLfit was used to determine the IC50. The top and the bottom of the curve were fixed to 100 and 0, respectively, and the hill slope was fixed to 1. The IC50 represents the concentration of a compound that is required for inhibiting a biological effect by 50% (Here, it is the concentration where Aβ peptide level is reduced by 50%).
(§4) To obtain the values reported in Table 12b, the data are calculated as percentage of the maximum amount of amyloid Beta 42 measured in the absence of the test compound. The sigmoidal dose response curves were analyzed using non-linear regression analysis with percentage of the control plotted against the log concentration of the compound. A 4-parameter equation was used to determine the IC50. The values reported in Table 12b are averaged IC50 values.

Aβtotal = test: Screening for γ-secretase-modulating activity, Method 1: Aβtotal sandwich ELISA in supernatant of SKNBE2 cells carrying APP 695 wild type (Tables 12a, 12b); type: cell-based
Procedure: as §1, §2
To quantify the amount of Aβtotal in the cell supernatant, samples and standards were added to a 6E10-coated plate. The plate was allowed to incubate overnight at 4° C. in order to allow formation of the antibody-amyloid complex. Following this incubation and subsequent wash steps a selective anti-Aβ-antibody conjugate (biotinylated 4G8) was added and incubated for a minimum of 1 hour in order to allow formation of the antibody-Amyloid-antibody-complex. After incubation and appropriate wash steps, a Streptavidine-Peroxidase-Conjugate was added, followed 30 minutes later by an addition of Quanta Blu fluorogenic peroxidase substrate according to the manufacturer's instructions (Pierce Corp., Rockford, Ill.).
as §3, §4

[1] = Homo sapiens, Method 1, Table 12a, SKNBE2 cells carrying APP 695 wild type, compounds 18 hours, ELISA, curve top and bottom fixed to 100 and 0, hill slope 1
[2] = Homo sapiens, Table 12b, Method 1, SKNBE2 cells carrying APP 695 wild type, cell supernatant ELISA, averaged IC50 values, percentage of control vs log concentration
[3] = Homo sapiens, Table 12b, Method 1, SKNBE2 cells carrying APP 695 wild type, cell supernatant ELISA, averaged IC50 values
[4] = Method 1, Table 12a, SKNBE2 cells carrying APP 695 wild type, compounds 18 hours, ELISA, curve top and bottom fixed to 100 and 0, hill slope 1
[5] = Table 12b, Method 1, SKNBE2 cells carrying APP 695 wild type, cell supernatant ELISA, averaged IC50 values, percentage of control vs log concentration
[6] = Table 12b, Method 1, SKNBE2 cells carrying APP 695 wild type, cell supernatant ELISA, averaged IC50 values

pIC50 (Aβ42; [1])	pIC50 (Aβ42; [2])	pIC50 (Aβtotal; [1])	pIC50 (Aβtotal; [3])	pIC50 (Aβ42; [4])	pIC50 (Aβ42; [5])	pIC50 (Aβtotal; [4])	pIC50 (Aβtotal; [6])	Structure (SMILES)
6.62	6.58	< 5.00	< 5.00					COc1cc(Nc2cccn3cc(-c4ccc(F)cc4)nc23)ccc1-n1cnc(C)n1 [Compound 6]
6.42	6.55	< 5.00	< 5.00					COc1cc(Nc2cccn3cc(C(C)(C)C)nc23)ccc1-n1cnc(C)c1 [Compound 9]
				7.41	7.46	< 5.52	< 5.52	CCCCc1nc2c(Nc3ccc(-n4cnc(C)c4)c(OC)c3)cccn2c1CCC [Compound 11]
7.19	7.26	< 5.52	< 5.52					COc1cc(Nc2cccn3cc(-c4ccccc4)nc23)ccc1-n1cnc(C)c1 [Compound 12]
7.05	7.06	< 5.52	< 5.52					COc1cc(Nc2cccn3c(-c4ccccc4)c(-c4ccccc4)nc23)ccc1-n1cnc(C)c1 [Compound 13]
7.24	7.39	< 5.52	< 5.52					COc1cc(Nc2cccn3cc(-c4ccccc4Cl)nc23)ccc1-n1cnc(C)c1 [Compound 14]
7.24	7.31	< 5.52	< 5.52					COc1cc(Nc2cccn3cc(-c4cccc(Cl)c4)nc23)ccc1-n1cnc(C)c1 [Compound 16]
7.10	7.15	< 5.52	< 5.52					COc1cc(Nc2cccn3cc(-c4ccc(Cl)cc4)nc23)ccc1-n1cnc(C)c1 [Compound 17]
7.23	7.25	< 5.52	< 5.52					COc1cc(Nc2cccn3cc(-c4cccc(F)c4)nc23)ccc1-n1cnc(C)c1 [Compound 19]
	6.06		5.24					COc1cc(Nc2cccn3cc(-c4ccc(F)cc4)nc23)ccc1-n1cc(C)nc1C [Compound 20]
6.58	6.69	< 5.30	< 5.30					COc1cc(Nc2cccn3cc(-c4ccc(F)cc4)nc23)ccc1-n1ccnc1C [Compound 21]
6.95	6.95	< 5.52	< 5.52					COc1cc(Nc2cccn3c(Br)c(-c4ccc(F)cc4)nc23)ccc1-n1cnc(C)c1 [Compound 22]
				7.60	7.66	< 5.52	< 5.52	CCc1c(-c2ccc(F)cc2)nc2c(Nc3ccc(-n4cnc(C)c4)c(OC)c3)cccn12 [Compound 23]
6.60	6.62	< 5.00	< 5.00					COc1cc(Nc2cccn3cc(-c4ccc(F)cc4F)nc23)ccc1-n1cnc(C)c1 [Compound 25]
7.70	7.74	< 6.00	< 5.52					COc1cc(Nc2cccn3cc(COc4ccc(F)cc4)nc23)ccc1-n1cnc(C)c1 [Compound 28]
7.24	7.35	< 5.52	< 5.52					COc1cc(Nc2cccn3cc(-c4ccc(C(F)(F)F)cc4)nc23)ccc1-n1cnc(C)c1 [Compound 30]
7.19	7.22	< 5.52	< 5.52					COc1ccc(-c2cn3cccc(Nc4ccc(-n5cnc(C)c5)c(OC)c4)c3n2)cc1 [Compound 36]
6.72	6.76	< 5.00	< 5.00					COc1ccc(-c2cn3cccc(Nc4ccc(-n5cnc(C)c5)c(OC)c4)c3n2)c(OC)c1 [Compound 37]
6.46	6.44	5.07	5.13					COc1cc(Nc2cccn3cc(-c4ccccn4)nc23)ccc1-n1cnc(C)c1 [Compound 41]

pIC50 (Aβ42; [1])	pIC50 (Aβ42; [2])	pIC50 (Aβtotal; [1])	pIC50 (Aβtotal; [3])	pIC50 (Aβ42; [4])	pIC50 (Aβ42; [5])	pIC50 (Aβtotal; [4])	pIC50 (Aβtotal; [6])	Structure (SMILES)
6.37	6.37	< 5.00	< 5.00					COc1cc(Nc2cccn3cc(-c4cccnc4)nc23)ccc1-n1cnc(C)c1 [Compound 42]
	< 5.52		< 5.52					COc1cc(Nc2cccn3cc(-c4ccncc4)nc23)ccc1-n1cnc(C)c1 [Compound 43]
	6.21		< 5.52					COc1cc(Nc2cccn3cc(-c4ccc5ncn(C)c5c4)nc23)ccc1-n1cnc(C)c1 [Compound 44]
6.63	6.70	< 5.30	< 5.30					COc1cc(Nc2cccn3cc(-c4ccc(F)cc4)nc23)ccc1-n1ncnc1C [Compound 45]
				7.28	7.30	< 5.52	< 5.52	COc1cccc(-c2nc3c(Nc4cnc(-n5cnc(C)c5)nc4)cccn3c2C)c1 [Compound 46]
7.51	7.51	< 5.52	< 5.52					COc1cc(Nc2cccn3cc(-c4ccccc4C(F)(F)F)nc23)ccc1-n1cnc(C)c1 [Compound 47]
7.22	7.28	< 5.52	< 5.52					COc1cc(Nc2cccn3cc(-c4cccc(C(F)(F)F)c4)nc23)ccc1-n1cnc(C)c1 [Compound 48]
6.52	6.39	5.00	< 5.00					COc1cc(Nc2cccn3ccnc23)ccc1-n1cnc(C)c1 [Compound 49]
				7.41	7.42	< 5.52	< 5.52	CCCCc1cn2cccc(Nc3ccc(-n4cnc(C)c4)c(OC)c3)c2n1 [Compound 51]
	7.57		< 5.52					COc1cc(Nc2cccn3c(Cl)c(CC4CCCCC4)nc23)ccc1-n1cnc(C)c1 [Compound 53]
7.15	7.17	< 5.52	< 5.52					COc1cc(Nc2cccn3cc(COC(C)C)nc23)ccc1-n1cnc(C)c1 [Compound 54]
					5.89		< 5.52	COc1cc(Nc2cccn3cc(CN4CCCCC4)nc23)ccc1-n1cnc(C)c1 [Compound 55]
6.22	6.69	< 5.00	< 5.00					COc1cc(Nc2cccn3cc(CN4CCOCC4)nc23)ccc1-n1cnc(C)c1 [Compound 56]
7.24	7.29	< 6.00	< 5.52					COc1cc(Nc2cccn3c(I)c(-c4ccc(F)cc4)nc23)ccc1-n1cnc(C)c1 [Compound 57]
	> 6.96		< 5.52					COc1cc(Nc2cccn3c(C#N)c(-c4ccc(F)cc4)nc23)ccc1-n1cnc(C)c1 [Compound 58]
				6.91	6.84	< 5.52	< 5.52	CCCCCCc1cnc2c(Nc3ccc(-n4cnc(C)c4)c(OC)c3)cccn12 [Compound 59]
	> 6.96		< 5.52					COc1cc(Nc2cccn3c(-c4ccccc4-c4ccccc4)cnc23)ccc1-n1cnc(C)c1 [Compound 60]
	7.12							COc1cccc(-c2nc3c(Nc4ccc(-n5cnc(C)c5)c(F)c4)cccn3c2C)c1 [Compound 66]

Structure (SMILES)	pIC50 (Aβ42; [1])	pIC50 (Aβ42; [2])	pIC50 (Aβtotal; [1])	pIC50 (Aβtotal; [3])	pIC50 (Aβ42; [4])	pIC50 (Aβ42; [5])	pIC50 (Aβtotal; [4])	pIC50 (Aβtotal; [6])
CCCc1c(-c2ccc(F)cc2)nc2c(Nc3ccc(-n4cnc(C)c4)c(OC)c3)cccn12 [Compound 24]					7.62	7.70	< 6.00	< 5.00
